Reference: ChEMBL document CHEMBL4308862, “Discovery of a novel azetidine scaffold for colony stimulating factor-1 receptor (CSF-1R) Type II inhibitors by the use of docking models” (Bioorg Med Chem Lett, 2019)

Each compound was assayed against Macrophage colony-stimulating factor 1 receptor (Homo sapiens, UniProt P07333) (assay: Inhibition of human CSF1R tyrosine kinase domain (538 to 972 residues) using Poly(Glu, Tyr)-biotinylated peptide as substrate preincubated for 5 mins followed by substrate addition and measured after 10 mins by HTRF assay).
Macrophage colony-stimulating factor 1 receptor, sequence (P07333 whole entry, the tested form may be a part): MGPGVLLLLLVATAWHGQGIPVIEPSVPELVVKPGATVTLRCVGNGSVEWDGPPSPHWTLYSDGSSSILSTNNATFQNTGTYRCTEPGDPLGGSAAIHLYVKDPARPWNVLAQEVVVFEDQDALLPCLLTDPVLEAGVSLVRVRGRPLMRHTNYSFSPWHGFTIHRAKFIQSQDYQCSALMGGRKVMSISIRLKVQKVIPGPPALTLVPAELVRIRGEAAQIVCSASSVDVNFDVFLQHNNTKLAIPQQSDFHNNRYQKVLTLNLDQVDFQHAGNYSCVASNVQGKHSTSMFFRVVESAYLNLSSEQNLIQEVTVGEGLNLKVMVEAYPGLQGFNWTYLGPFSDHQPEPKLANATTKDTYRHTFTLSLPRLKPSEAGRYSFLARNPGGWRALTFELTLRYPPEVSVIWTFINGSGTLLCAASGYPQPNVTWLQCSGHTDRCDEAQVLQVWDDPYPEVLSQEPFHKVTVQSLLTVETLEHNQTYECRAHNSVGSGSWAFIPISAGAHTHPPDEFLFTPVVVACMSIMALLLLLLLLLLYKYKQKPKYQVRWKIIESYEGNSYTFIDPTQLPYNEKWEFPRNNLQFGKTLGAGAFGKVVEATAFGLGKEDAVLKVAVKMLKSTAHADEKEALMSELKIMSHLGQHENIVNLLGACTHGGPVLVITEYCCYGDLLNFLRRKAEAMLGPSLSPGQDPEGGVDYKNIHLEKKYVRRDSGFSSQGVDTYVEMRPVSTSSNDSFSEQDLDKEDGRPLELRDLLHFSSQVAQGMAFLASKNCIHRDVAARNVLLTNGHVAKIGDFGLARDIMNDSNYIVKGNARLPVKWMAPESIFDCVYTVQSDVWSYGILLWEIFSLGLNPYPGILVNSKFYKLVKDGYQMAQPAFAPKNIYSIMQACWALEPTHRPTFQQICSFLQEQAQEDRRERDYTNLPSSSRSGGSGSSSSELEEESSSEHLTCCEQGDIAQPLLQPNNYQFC

IC50, > 3 µM:
CCc1ccc(COc2ccc(C3CN(Cc4ccccn4)C3)cc2OC)cc1
CCc1ccc(COc2ccc(C3CN(Cc4cccnc4)C3)cc2OC)cc1
CCc1ccc(COc2ccc(C3CN(c4ccccn4)C3)cc2OC)cc1
